From paper doi:10.1101/2021.10.25.465661v1 (biorxiv, 2021)

Molecular target: T1, Q-eTud34 (Drosophila melanogaster, UniProt Q9VE55)
T1 sequence (Q9VE55 959-1515): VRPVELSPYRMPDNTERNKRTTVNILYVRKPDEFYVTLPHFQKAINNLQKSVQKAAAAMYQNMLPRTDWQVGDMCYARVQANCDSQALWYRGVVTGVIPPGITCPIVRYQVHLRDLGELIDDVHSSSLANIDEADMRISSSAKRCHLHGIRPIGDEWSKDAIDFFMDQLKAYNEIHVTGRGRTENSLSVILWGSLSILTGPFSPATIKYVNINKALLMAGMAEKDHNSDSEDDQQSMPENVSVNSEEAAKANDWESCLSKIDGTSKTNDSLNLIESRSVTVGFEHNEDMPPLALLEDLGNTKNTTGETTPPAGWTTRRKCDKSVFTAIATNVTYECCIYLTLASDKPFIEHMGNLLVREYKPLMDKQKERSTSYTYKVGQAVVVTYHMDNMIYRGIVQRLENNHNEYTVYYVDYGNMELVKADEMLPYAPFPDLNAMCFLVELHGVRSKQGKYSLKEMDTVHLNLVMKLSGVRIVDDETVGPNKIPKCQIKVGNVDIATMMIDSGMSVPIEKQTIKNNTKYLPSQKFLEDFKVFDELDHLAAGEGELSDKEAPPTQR
Assay: thermal shift assay
Assay type: binding
Conditions: read-out: Tm increase at 10 mM

Question: For `CN(C)C(=N)NCCC[C@H](N)C(=O)O` [aDMA], which ΔTm at 10000 µM is on record?
Answer: Its ΔTm at 10000 µM is 0.9 °C.
